Experiments:
Test in all cases: pH variation detection on modified chromID Coli medium (Example 6)
Assay type in all cases: cell-based
Set-up in all cases: Coloration strength: key to the marks not given beside the values
Conditions in all cases: 50 mg/l, 24 h 37° C.
[1] = system: Yersinia enterocolitica 05 04 143
Method: (§1) The media were incubated for 24 hours at 37° C., then the spots formed were examined visually.

[2] = system: Enterobacter intermedius 05 04 110
Method: as §1

[3] = system: Kluyvera ascorbata 84 08 084
Method: as §1

[4] = system: Pantoea agglomerans 04 05 057
Method: as §1

[5] = system: Rahnella aquatilis 05 04 103
Method: as §1

[6] = system: Hafnia alvei 05 04 201
Method: as §1

[7] = system: Salmonella spp 93 03 001; as to Coloration strength: key: +++: good growth/high coloration strength; ++: medium growth/medium coloration strength; +: weak growth/weak coloration strength; −: no growth/no coloration; as to Growth: key: +++: good growth/high coloration strength; ++: medium growth/medium coloration strength; +: weak growth/weak coloration strength; −: no growth/no coloration
Method: as §1

[8] = system: Salmonella ser. Typhimurium 81 12 010
Method: as §1

[9] = system: Proteus vulgaris 04 05 062
Method: as §1

[10] = system: Yersinia enterocolitica ssp enterocolitica 92 11 061
Method: as §1

[11] = system: Serratia liquefaciens 05 04 117
Method: as §1

[12] = system: Providencia stuartii 92 12 101
Method: as §1

[13] = system: Raoultella ornithinolytica 05 04 140
Method: as §1

[14] = system: Providencia rettgeri 88 05 064
Method: as §1

[15] = system: Citrobacter freundii 05 04 165
Method: as §1

[16] = system: Shigella sonnei 92 11 060; as to Coloration strength: key: +++: good growth/high coloration strength; ++: medium growth/medium coloration strength; +: weak growth/weak coloration strength; −: no growth/no coloration; as to Growth: key: +++: good growth/high coloration strength; ++: medium growth/medium coloration strength; +: weak growth/weak coloration strength; −: no growth/no coloration
Method: as §1

[17] = system: Leclercia adecarboxylata 97 04 041
Method: as §1

[18] = system: Proteus mirabilis 04 05 048
Method: as §1

[19] = system: Klebsiella oxytoca 05 04 175
Method: as §1

[20] = system: E. coli 05 06 043
Method: as §1

[21] = system: Shigella flexneri 92 11 059
Method: as §1

[22] = system: E. coli 77 05 035
Method: as §1

[23] = system: Shigella spp 76 02 055
Method: as §1

Compound: Nc1ccc(C=Cc2ccnc3ccccc23)cc1
- Color [1]: Orange
- Coloration strength [1]: ++
- Growth ([1]; control C: ++): +
- Color [2]: Orange
- Coloration strength [2]: ++
- Growth ([2]; control C: ++): +
- Color [3]: Orange
- Coloration strength [3]: ++
- Growth ([3]; control C: ++): ++
- Color [4]: Orange
- Coloration strength [4]: ++
- Growth ([4]; control C: ++): ++
- Color [5]: Orange
- Coloration strength [5]: ++
- Growth ([5]; control C: ++): ++
- Color [6]: Orange
- Coloration strength [6]: ++
- Growth ([6]; control C: ++): ++
- Color [7]: Orange
- Coloration strength [7]: ++
- Growth ([7]; control C: ++): ++
- Color [8]: Orange
- Coloration strength [8]: ++
- Growth ([8]; control C: ++): ++
- Color [9]: Orange
- Coloration strength [9]: ++
- Growth ([9]; control C: ++): ++
- Color [10]: Orange
- Coloration strength [10]: ++
- Growth ([10]; control C: ++): ++
- Color [11]: Orange
- Coloration strength [11]: ++
- Growth ([11]; control C: ++): ++
- Color [12]: Orange
- Coloration strength [12]: ++
- Growth ([12]; control C: ++): ++
- Color [13]: Orange
- Coloration strength [13]: ++
- Growth ([13]; control C: ++): ++
- Color [14]: Orange
- Coloration strength [14]: ++
- Growth ([14]; control C: ++): ++
- Color [15]: Orange
- Coloration strength [15]: ++
- Growth ([15]; control C: ++): ++
- Color [16]: Orange
- Coloration strength [16]: ++
- Growth ([16]; control C: ++): ++
- Color [17]: Orange
- Coloration strength [17]: ++
- Growth ([17]; control C: ++): ++
- Color [18]: Orange
- Coloration strength [18]: ++
- Growth ([18]; control C: ++): ++
- Color [19]: Orange
- Coloration strength [19]: ++
- Growth ([19]; control C: ++): ++
- Color [20]: Orange
- Coloration strength [20]: ++
- Growth ([20]; control C: ++): ++
- Color [21]: Orange
- Coloration strength [21]: ++
- Growth ([21]; control C: ++): ++
- Color [22]: Orange
- Coloration strength [22]: ++
- Growth ([22]; control C: ++): ++
- Color [23]: Orange
- Coloration strength [23]: ++
- Growth ([23]; control C: ++): ++

From patent publication US8592174B2, “Peptidase substrates” (bioMérieux, S.A., priority 2009, dated 2013)
